This is an account of results in patent US20250270202A1, “SUBSTITUTED 4-AMINOISOINDOLINE COMPOUND, PREPARATION METHOD THEREFOR, PHARMACEUTICAL COMPOSITION THEREOF, AND USE THEREOF” (SHANGHAI INSTITUTE OF MATERIA MEDICA, CHINESE ACADEMY OF …, priority 2022, published 2025).

Structures are written as SMILES. pIC50: −log10 of the molar value. Read-outs that look alike come from different tables or passages of the source.

Common to all, as to format: cell-based
The test system of one test is MM.1S cells. Put plainly: Effect of the compound on MM.1S cell proliferation (MTS, 7 days). On the procedure:
MM.1S cells were cultured in 1640 medium supplemented with 10% fetal bovine serum, then collected and diluted to the desired cell concentration after 7 days of treatment. A total of 180 μL of cell suspension was added to each well in a 96-well cell plate, ensuring 20,000 cells per well. For the control group, 20 μL of 0.2% DMSO was added to each well. Compounds were diluted in a 5-step gradient from a 10 mM stock solution, and 20 μL of each dilution was added to the compound-containing wells (with a final DMSO concentration of 0.2%). The cells were incubated in a 37° C., 5% CO2 incubator for 7 days. Afterward, 20 μL of the MTS reagent (Promega, G5430) was added to each well, followed by incubation for 3-4 hours in a 37° C., 5% CO2 incubator. Absorbance at 490 nm was measured using a microplate reader, with 690 nm absorbance as the background. The final raw data was calculated as OD490-OD690. The compound inhibition rate was calculated using the formula: […]
The IC50 for the compound's proliferative inhibition was fitted using GraphPad Prism 5.0. The experiment was repeated three times, and the average and standard deviation were calculated using three parallel experiments per trial.

The next test has as its system Mino cells. Briefly: Inhibition of cell proliferation of Mino cells (MTS, 3 days). On the procedure:
Mino cells were cultured with RPMI-1640 medium supplemented with 15% fetal bovine serum, and collected. The cell concentration was diluted according to a 3-day treatment period, and 90 μL of the cell suspension was added to each well of a 96-well plate, resulting in 8000 cells per well. For control wells, 10 μL of DMSO at a final concentration of 0.2% was added. The compounds were diluted in a 5-fold gradient from a 10 mM stock solution, and 10 μL of each compound solution was added to the experimental wells (with a final DMSO concentration of 0.2%). The cells were incubated in a 37° C., 5% CO2 incubator for 3 days. After preparing the reaction mixture using the MTS reagent kit (Promega, G5430), 20 μL was added to each well, and the cells were incubated for 3-4 hours at 37° C., 5% CO2.
The absorbance at 490 nm was read using a microplate reader, with the absorbance at 690 nm used as the background. The final raw data was calculated as OD490-OD690. The inhibition rate of the compounds was calculated using the formula: Inhibition rate=(OD DMSO−OD compound)/(OD DMSO−OD blank)×100%. The IC50 values for cell proliferation inhibition of the compounds were fitted using GraphPad Prism 5.0. The experiment was repeated three times, with the average and standard deviation calculated from three parallel experiments each time.

A further test deals with MV-4-11 cells. Put plainly: Inhibition of MV-4-11 cell proliferation (MTS, 7 days). As to conditions: for pIC50: 7 days, MTS, Table 3, read-out: MV-4-11 Cells Inhibition Activity IC50; for IC50: read-out: Inhibitory Activity of Compounds on Cell Proliferation MV-4-11 IC50. As to the method:
MV-4-11 cells were cultured in IMDM with 10% fetal bovine serum, collected, and diluted to the appropriate cell concentration for a 7-day treatment period. A 96-well plate was used, and 180 μL of cell suspension was added to each well, resulting in a cell count of 2,000 per well. For the control wells, 20 μL of DMSO at a final concentration of 0.2% was added. The compounds were diluted from a 10 mM stock solution in a five-fold gradient, and 20 μL was added to the compound wells (with a final DMSO concentration of 0.2%). The cells were incubated in a 37° C., 5% CO2 incubator for 7 days. After preparing the reaction solution using the MTS reagent kit (Promega, G5430), 20 μL was added to each well, and the cells were incubated in the incubator for 3-4 hours. The absorbance at 490 nm was measured using a microplate reader, with the absorbance at 690 nm as the background value. The final data was calculated as OD490-OD690. The inhibition rate of the compounds was calculated using the formula: […]
The IC50 values for proliferation inhibition were calculated using GraphPad Prism 5.0. The experiments were repeated three times, with three parallel experiments for each, and the mean and standard deviation were calculated.
The cell activity test results are shown in Table 3: A indicates IC50<1 μM, B indicates 1 µM≤IC50≤20 μM, and C indicates IC50>20 μM.

Setting [1] is: Homo sapiens, MM1.S, 168 h, 7 days, MTS, Table 1, read-out: MM.1S Cells Inhibition Activity IC50.
Setting [2] is: Homo sapiens, MINO, 72 h, 3 days, MTS, Table 2, read-out: Mino Cells Inhibition Activity IC50.
Where [3] appears, read: Homo sapiens, MM1.S, Table 4, read-out: Inhibitory Activity of Compounds on Cell Proliferation MM.1S IC50.
The mark [4] stands for this setting: Homo sapiens, MINO, Table 4, read-out: Inhibitory Activity of Compounds on Cell Proliferation Mino IC50.

On to `O=C1CCC(N2C(=O)c3cccc(NCc4cnc(C5CCN(C(=O)C67CC8CC(CC(C8)C6)C7)CC5)o4)c3C2=O)C(=O)N1` (stereo not drawn) [Example 3, 4-((2-(1-((3r,5r,7r)-adamantane-1-carbonyl)piperidin-4-yl)oxazol-5-yl)methyl)amino)-2-(2,6-dioxopiperidin-3-yl)isoindoline-1,3-dione], for which the pIC50 with MM.1S cells (setting [1]) is more than 7.82; with Mino cells (setting [2]) it was more than 7.22; with MV-4-11 cells (Homo sapiens, MV4-11, 168 h), 4.70 to 6.00.
Turning to `O=C1CCC(N2C(=O)c3cccc(NCc4ncc(-c5ccccc5Cl)o4)c3C2=O)C(=O)N1` (stereo not drawn) [Example 66, 4-(((5-(2-Chlorophenyl)oxazol-2-yl)methyl)amino)-2-(2,6-Dioxopiperidin-3-yl)isoindolin-1,3-dione], the pIC50 is 6.82 to 7.52 in the test with MM.1S cells (setting [1]); less than 6.92 with Mino cells (setting [2]); more than 6.00 with MV-4-11 cells (Homo sapiens, MV4-11, 168 h).
For `CC(C)(C)C(=O)N1CCC(c2ncc(CNc3cccc4c3CN(C3CCC(=O)NC3=O)C4=O)o2)CC1` (stereo not drawn) [Example Ctrl-1, 3-(1-oxo-4-(((2-(1-pivaloylpiperidin-4-yl)oxazol-5-yl)methyl)amino)isoindolin-2-yl)piperidine-2,6-dione, reference compound], the pIC50 is 6.38 with MM.1S cells (setting [3]) and less than 4.70 with Mino cells (setting [4]). Further, the IC50 in the test on MV-4-11 cells (Homo sapiens, MV4-11, Table 4, values in nM) is 14400 nM.
As for `O=C1CCC(N2C(=O)c3cccc(NCc4cnc(-c5ccc(Cl)c(Cl)c5)o4)c3C2=O)C(=O)N1` (stereo not drawn) [Example 73, 4-(((2-(3,4-Dichlorophenyl)oxazol-5-yl)methyl)amino)-2-(2,6-Dioxopiperidin-3-yl)isoindolin-1,3-dione], the pIC50 in the test on MM.1S cells (setting [1]) is 7.52 to 7.82; with Mino cells (setting [2]), less than 6.92; with MV-4-11 cells (Homo sapiens, MV4-11, 168 h), more than 6.00.
For `COCCOc1ccc(-c2ncc(CNc3cccc4c3C(=O)N(C3CCC(=O)NC3=O)C4=O)o2)cc1` (stereo not drawn) [Example 52] the same measures were more than 7.82, more than 7.22 and more than 6.00.
Regarding `O=C1CCC(N2C(=O)c3cccc(NCc4cnc(-c5ccc(Cl)cc5)s4)c3C2=O)C(=O)N1` (stereo not drawn) [Example 32], the pIC50 with MM.1S cells (setting [1]) was more than 7.82; with Mino cells (setting [2]), 6.92 to 7.22; in the test on MV-4-11 cells (Homo sapiens, MV4-11, 168 h) it was more than 6.00.
The like results for `O=C1CCC(N2C(=O)c3cccc(NCc4cnc(CN5CCOCC5)o4)c3C2=O)C(=O)N1` (stereo not drawn) [Example 82] were, in that order, less than 6.82, less than 6.92 and more than 6.00.
For `COc1ccc(-c2ncc(CNc3cccc4c3C(=O)N(C3CCC(=O)NC3=O)C4=O)s2)c(OC)c1` (stereo not drawn) [Example 36] the same measures were 7.52 to 7.82, less than 6.92 and more than 6.00.
Regarding `O=C1CCC(N2C(=O)c3cccc(NCc4cnc(C5CCN(C(=O)CC67CC8CC(CC(C8)C6)C7)CC5)o4)c3C2=O)C(=O)N1` (stereo not drawn) [Example 11], the pIC50 was more than 7.82 with MM.1S cells (setting [1]); more than 7.22 in the test with Mino cells (setting [2]); more than 6.00 in the test on MV-4-11 cells (Homo sapiens, MV4-11, 168 h).
For `O=C1CCC(N2C(=O)c3cccc(NCc4cnc(-c5ccccc5Cl)o4)c3C2=O)C(=O)N1` (stereo not drawn) [Example 92, 4-(((2-(2-Chlorophenyl)oxazol-5-yl)methyl)amino)-2-(2,6-Dioxopiperidine-3-yl)isoindoline-1,3-dione], the pIC50 with MM.1S cells (7 days, MTS, Table 1, read-out: MM.1S Cells Inhibition Activity IC50) was more than 7.82; in the test with Mino cells (3 days, MTS, Table 2, read-out: Mino Cells Inhibition Activity IC50) it was less than 6.92; in the test with MV-4-11 cells, more than 6.00.
Regarding `O=CN(Cc1cnc(-c2ccc(Cl)cc2)o1)c1cccc2c1C(=O)N(C1CCC(=O)NC1=O)C2=O` (stereo not drawn) [Example Ctrl-2, N-((2-(4-chlorophenyl)oxazol-5-yl)methyl)-N-(2-(2,6-dioxopiperidin-3-yl)-1,3-dioxoisoindolin-4-yl) formamide, reference compound], the pIC50 was less than 7.52 in the test with MM.1S cells (setting [3]) and less than 6.92 in the test on Mino cells (setting [4]). Further, the IC50 in the test on MV-4-11 cells (Homo sapiens, MV4-11, Table 4, values in μM) was 1000 to 20000 nM.
As for `CC(C)(C)C(=O)OCN1C(=O)CCC(N2C(=O)c3cccc(NCc4cnc(C5CCN(C(=O)C(C)(C)C)CC5)o4)c3C2=O)C1=O` (stereo not drawn) [Example 41], the pIC50 was 7.52 to 7.82 in the test on MM.1S cells (setting [1]); less than 6.92 in the test with Mino cells (setting [2]); 4.70 to 6.00 in the test with MV-4-11 cells (Homo sapiens, MV4-11, 168 h).
The like results for `N#Cc1ccc(N2CCN(Cc3ncc(CNc4cccc5c4C(=O)N(C4CCC(=O)NC4=O)C5=O)o3)CC2)c(F)c1` (stereo not drawn) [Example 81] were, in that order, 6.82 to 7.52, less than 6.92 and 4.70 to 6.00.
The like results for `Cc1ccc(-c2ncc(CNc3cccc4c3C(=O)N(C3CCC(=O)NC3=O)C4=O)s2)cc1` (stereo not drawn) [Example 29] were, in that order, more than 7.82, less than 6.92 and more than 6.00.
For the molecule `O=C1CCC(N2C(=O)c3cccc(NCc4cnc(-c5cccc(Cl)c5)o4)c3C2=O)C(=O)N1` (stereo not drawn) [Example 63, 4-(((2-(3-Chlorophenyl)oxazol-5-yl)methyl)amino)-2-(2,6-Dioxopiperidin-3-yl)isoindolin-1,3-dione], the pIC50 in the test with MM.1S cells (setting [1]) was 7.52 to 7.82; with Mino cells (setting [2]) it was less than 6.92; in the test with MV-4-11 cells (Homo sapiens, MV4-11, 168 h) it was more than 6.00.
As to `O=C1CCC(N2C(=O)c3cccc(NCc4cnc(-c5ccc(O[C@@H]6CCOC6)cc5)o4)c3C2=O)C(=O)N1` (stereo partly drawn) [Example 54], the pIC50 in the test on MM.1S cells (setting [1]) is more than 7.82; in the test with Mino cells (setting [2]), more than 7.22; in the test on MV-4-11 cells (Homo sapiens, MV4-11, 168 h) it was more than 6.00.
For `O=C1CCC(N2C(=O)c3cccc(NCc4ncc(-c5cccc(Cl)c5)o4)c3C2=O)C(=O)N1` (stereo not drawn) [Example 65, 4-(((5-(3-Chlorophenyl)oxazol-2-yl)methyl)amino)-2-(2,6-Dioxopiperidin-3-yl)isoindolin-1,3-dione] the same measures were 6.82 to 7.52, less than 6.92 and more than 6.00.
As to `O=C1CCC(N2C(=O)c3cccc(NCc4cnc(-c5cccc(OC6CC6)c5)o4)c3C2=O)C(=O)N1` (stereo not drawn) [Example 96, 4-(((2-(Cyclopropoxyphenyl)oxazol-5-yl)methyl)amino)-2-(2,6-Dioxopiperidine-3-yl)isoindoline-1,3-dione], the pIC50 is more than 7.82 in the test with MM.1S cells (setting [1]); less than 6.92 with Mino cells (setting [2]); more than 6.00 in the test with MV-4-11 cells (Homo sapiens, MV4-11, 168 h).
Consider `CC(C)(C)C(=O)OCN1C(=O)CCC(N2C(=O)c3cccc(NCc4cnc(-c5ccc(Cl)cc5)o4)c3C2=O)C1=O` (stereo not drawn) [Example 40, (3-(4-(((2-(4-Chlorophenyl)-5-oxazolyl)methyl)amino)-1,3-dioxoisoindol-2-yl)-2,6-dioxopiperidin-1-yl)methyl Neopentyl Ester], for which the pIC50 is 6.82 to 7.52 with MM.1S cells (setting [1]); less than 6.92 with Mino cells (setting [2]); more than 6.00 in the test on MV-4-11 cells (Homo sapiens, MV4-11, 168 h).
For `O=C1CCC(N2C(=O)c3cccc(NCc4ncc(-c5cccc(C(F)(F)F)c5)o4)c3C2=O)C(=O)N1` (stereo not drawn) [Example 61], the pIC50 with MM.1S cells (setting [1]) is 6.82 to 7.52; in the test with Mino cells (setting [2]), less than 6.92; in the test on MV-4-11 cells (Homo sapiens, MV4-11, 168 h), less than 4.70.
The like results for `O=C1CCC(N2C(=O)c3cccc(NCc4cnc(-c5ccc(Cl)cc5Cl)o4)c3C2=O)C(=O)N1` (stereo not drawn) [Example 76, 4-(((2-(2,4-Dichlorophenyl)oxazol-5-yl)methyl)amino)-2-(2,6-Dioxopiperidin-3-yl)isoindolin-1,3-dione] were, in that order, 6.82 to 7.52, less than 6.92 and more than 6.00.
